Results reported in US20260062422A1 (Halda Therapeutics OpCo, Inc., priority 2022, published 2026).

Legend:
VCaP cells = assay: Cellular growth inhibition assay for VCaP cells, CellTiter-Glo; format: cell-based, human; details: 72 hours treatment, CellTiter-Glo 2.0
In short: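 GI50 values come from four-parameter curve fits of luminescence data normalized to a zero baseline. Compound, in medium with 0.5% DMSO, was added one day after plating and left for 72 h before CellTiter-Glo 2.0 addition.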

[1] = system: T-Rex 293 cell line SC3 cells lacking increased expression of androgen receptor protein; assay: Cellular growth inhibition, T-Rex 293 SC3 cells without doxycycline, CellTiter-Glo; format: cell-based; details: T-Rex 293 SC3 cells not exposed to doxycycline, CellTiter-Glo 2.0
In short: (§1)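 GI50 came from a four-parameter fit of CellTiter-Glo 2.0 luminescence after 72 h compound exposure (0.5% DMSO, 37 °C), dosing 24 h post-seeding. SC3 clone cells (2500/well), transfected with wild-type androgen receptor, grew in charcoal-stripped serum medium lacking phenol red, induced with 10 ng/mL doxycycline or left uninduced.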

T47D cells = assay: Cellular growth inhibition assay for T47D cells, CellTiter-Glo; format: cell-based, human; details: 72 hours treatment, CellTiter-Glo 2.0 cell viability
In short: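 Luminescence from CellTiter-Glo 2.0 after 72 h of compound exposure gives the viability signal. Cells grew in insulin-supplemented (0.2 units/mL) DMEM with 10% FBS and were treated one day after seeding at 0.5% DMSO. GI50 values come from four-parameter nonlinear regression.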

[2] = system: T-Rex 293 cell line SC3 cells having increased expression of androgen receptor protein due to exposure to doxycycline; assay: Cellular growth inhibition, T-Rex 293 SC3 cells with doxycycline (androgen receptor induced), CellTiter-Glo; format: cell-based; details: T-Rex 293 SC3 cells with 10 ng/mL doxycycline (increased androgen receptor expression)
In short: as §1

Compound	GI50 (VCaP cells; Homo sapiens, VCaP, 72 h) [nM]	GI50 (T47D cells; Homo sapiens, T47D, 72 h) [nM]	GI50 (VCaP cells) [nM]	GI50 (T47D cells) [nM]	GI50 ([1]; 72 h) [nM]	GI50 ([2]; 72 h) [nM]	GI50 ([2]; 72 hours) [nM]	GI50 ([1]; 72 hours) [nM]
Cc1sc2c(c1C)C(c1ccc(CN3CCC4(CCCN(c5ncc(C(=O)N[C@H]6C(C)(C)[C@H](Oc7ccc(C#N)c(Cl)c7)C6(C)C)cn5)C4)C3)cc1)=NC(Cc1ncco1)c1nnc(C)n1-2 (some centres unmarked) [Compound I-137]	< 500	< 500	–	–	500 to 1500	< 500	–	–
CC[C@@H]1N=C(c2ccc(CC3CC4(CCN(c5ccc(C(=O)N[C@H]6C(C)(C)[C@H](Oc7ccc(C#N)c(Cl)c7)C6(C)C)cn5)CC4)C3)cc2)c2c(sc(C)c2C)-n2c(C)nnc21 [Compound I-598]	< 500	< 500	–	–	> 3000	< 500	–	–
Cc1sc2c(c1C)C(c1ccc(CC[C@@H]3CC[C@]4(CCCN(c5ncc(C(=O)N[C@H]6C(C)(C)[C@H](Oc7ccc(C#N)c(Cl)c7)C6(C)C)cn5)C4)C3)cc1)=N[C@@H](Cc1ncco1)c1nnc(C)n1-2 [Compound I-250]	< 500	< 500	–	–	> 3000	< 500	–	–
CNc1ccc2c(n1)C(c1ccc(OC3CC4(CCN(c5ncc(C(=O)N[C@H]6C(C)(C)[C@H](Oc7ccc(C#N)c(Cl)c7)C6(C)C)cn5)CC4)C3)cc1)=NCc1onc(C)c1-2 [Compound I-232]	< 500	< 500	–	–	> 3000	< 500	–	–
Cc1sc2c(c1C)C(c1ccc(C=C3CC4(CCCN(c5ncc(C(=O)N[C@H]6C(C)(C)[C@H](Oc7ccc(C#N)c(Cl)c7)C6(C)C)cn5)C4)C3)cc1)=N[C@@H](Cc1ncco1)c1nnc(C)n1-2 [Compound I-225, N-[3-(3-chloro-4-cyano-phenoxy)-2,2,4,4-tetramethyl-cyclobutyl]-2-[2-[[4-[(9S)-4,5,13-trimethyl-9-(oxazol-2-ylmethyl)-3-thia-1,8,11,12-tetrazatricyclo[8.3.0.02,6]trideca-2(6),4,7,10,12-pentaen-7-yl]phenyl]methylene]-6-azaspiro[3.5]nonan-6-yl]pyrimidine-5-carboxamide]	1500 to 3000	500 to 1500	–	–	500 to 1500	< 500	–	–
CC[C@@H]1N=C(c2ccc(C#CC3CC4(C3)CN(c3cnc(C(=O)N[C@H]5C(C)(C)[C@H](Oc6ccc(C#N)c(Cl)c6)C5(C)C)cn3)C4)cc2)c2c(sc(C)c2C)-n2c(C)nnc21 [Compound I-583]	< 500	< 500	–	–	500 to 1500	< 500	–	–
Cc1sc2c(c1C)C(c1ccc(O[C@H]3CCC4(CCCN(c5ncc(C(=O)N[C@H]6C(C)(C)[C@H](Oc7ccc(C#N)c(Cl)c7)C6(C)C)cn5)C4)C3)cc1)=N[C@@H](Cc1ncco1)c1nnc(C)n1-2 (some centres unmarked) [Compound I-200]	< 500	500 to 1500	–	–	500 to 1500	< 500	–	–
Cc1sc2c(c1C)C(c1ccc(CN3CCN(C(=O)c4ncc(C(=O)N[C@H]5C(C)(C)[C@H](Oc6ccc(C#N)c(Cl)c6)C5(C)C)cn4)CC3)cc1)=N[C@@H](Cc1ncco1)c1nnc(C)n1-2 [Compound I-290]	< 500	1500 to 3000	–	–	500 to 1500	< 500	–	–
Cc1sc2c(c1C)C(c1ccc(C(=O)N3CCC(C(=O)c4ncc(C(=O)N[C@H]5C(C)(C)[C@H](Oc6ccc(C#N)c(Cl)c6)C5(C)C)cn4)CC3)cc1)=N[C@@H](Cc1ncco1)c1nnc(C)n1-2 [Compound I-381]	> 3000	> 3000	–	–	> 3000	–	> 3000	–
Cc1sc2c(c1C)C(c1ccc(CC3CC4(CCN(c5ncc(C(=O)N[C@H]6C(C)(C)[C@H](Oc7ccc(C#N)c(Cl)c7)C6(C)C)cn5)CC4)C3)cc1)=N[C@@H](Cc1ncco1)c1nnc(C)n1-2 [Compound I-142]	> 3000	> 3000	–	–	> 3000	< 500	–	–
Cc1sc2c(c1C)C(c1ccc(CN3CC4(CCN(c5ncc(C(=O)N[C@H]6C(C)(C)[C@H](Oc7ccc(C#N)c(Cl)c7)C6(C)C)cn5)CC4)C3)cc1)=N[C@@H](Cc1ncco1)c1nnc(C)n1-2 [Compound I-141]	< 500	> 3000	–	–	500 to 1500	< 500	–	–
Cc1sc2c(c1C)C(c1ccc(O[C@H]3C[C@]4(CCCN(c5ncc(C(=O)N[C@H]6C(C)(C)[C@H](Oc7ccc(C#N)c(Cl)c7)C6(C)C)cn5)C4)C3)cc1)=N[C@@H](Cc1ncco1)c1nnc(C)n1-2 [Compound I-194]	< 500	500 to 1500	–	–	< 500	< 500	–	–
Cc1sc2c(c1C)C(c1ccc(-c3cc(C4CCN(c5ncc(C(=O)N[C@H]6C(C)(C)[C@H](Oc7ccc(C#N)c(Cl)c7)C6(C)C)cn5)CC4)on3)cc1)=N[C@@H](Cc1ncco1)c1nnc(C)n1-2 [Compound I-453]	< 500	< 500	–	–	> 3000	< 500	–	–
Cc1sc2c(c1C)C(c1ccc(NCC(=O)N3CCC(c4ncc(C(=O)N[C@H]5C(C)(C)[C@H](Oc6ccc(C#N)c(Cl)c6)C5(C)C)cn4)CC3)cc1)=N[C@@H](Cc1ncco1)c1nnc(C)n1-2 [Compound I-274]	> 3000	500 to 1500	–	–	> 3000	< 500	–	–
Cc1sc2c(c1C)C(c1ccc(OC3CC4(CCN(c5ncc(C(=O)N[C@H]6C(C)(C)[C@H](Oc7ccc(C#N)c(Cl)c7)C6(C)C)cn5)CC4)C3)cc1)=N[C@@H](Cc1ncon1)c1nnc(C)n1-2 [Compound I-279]	1500 to 3000	< 500	–	–	> 3000	< 500	–	–

Continued, in another order:

GI50 (VCaP cells; Homo sapiens, VCaP, 72 h) [nM]	GI50 (T47D cells; Homo sapiens, T47D, 72 h) [nM]	GI50 (VCaP cells) [nM]	GI50 (T47D cells) [nM]	Compound	GI50 ([1]; 72 h) [nM]	GI50 ([2]; 72 h) [nM]	GI50 ([2]; 72 hours) [nM]	GI50 ([1]; 72 hours) [nM]
< 500	< 500	–	–	COCC[C@@H]1N=C(c2ccc(OC3CC4(C3)CC3(CCN(c5ncc(C(=O)N[C@H]6C(C)(C)[C@H](Oc7ccc(C#N)c(Cl)c7)C6(C)C)cn5)CC3)C4)cc2)c2c(sc(C)c2C)-n2c(C)nnc21 [Compound I-584]	> 3000	< 500	–	–
< 500	< 500	–	–	Cc1sc2c(c1C)C(c1ccc(N3CC(C4CCN(c5ncc(C(=O)N[C@H]6C(C)(C)[C@H](Oc7ccc(C#N)c(Cl)c7)C6(C)C)cn5)C4)C3)cc1)=N[C@@H](C)c1nnc(C)n1-2 (some centres unmarked) [Compound I-616]	< 500	< 500	–	–
< 500	< 500	–	–	Cc1sc2c(c1C)C(c1ccc(C[C@H]3C[C@@H](OC4CCN(c5ncc(C(=O)N[C@H]6C(C)(C)[C@H](Oc7ccc(C#N)c(Cl)c7)C6(C)C)cn5)CC4)C3)cc1)=N[C@@H](Cc1ncco1)c1nnc(C)n1-2 [Compound I-426]	> 3000	< 500	–	–
> 3000	> 3000	–	–	Cc1sc2c(c1C)C(c1ccc(N3CCC(CC4CCN(c5ncc(C(=O)N[C@H]6C(C)(C)[C@H](Oc7ccc(C#N)c(Cl)c7)C6(C)C)cn5)CC4)CC3)cc1)=N[C@@H](Cc1ncco1)c1nnc(C)n1-2 [Compound I-210]	> 3000	500 to 1500	–	–
> 3000	> 3000	–	–	Cc1sc2c(c1C)C(c1ccc([C@H]3C[C@H]([C@H]4CCCN(c5ncc(C(=O)N[C@H]6C(C)(C)[C@H](Oc7ccc(C#N)c(Cl)c7)C6(C)C)cn5)C4)C3)cc1)=N[C@@H](Cc1ncco1)c1nnc(C)n1-2 [Compound I-420]	> 3000	> 3000	–	–
< 500	< 500	–	–	Cc1sc2c(c1C)C(c1ccc(OC3CC4(C3)CN(c3ncc(C(=O)N[C@H]5C(C)(C)[C@H](Oc6ccc(C#N)c(Cl)c6)C5(C)C)cn3)C4)cc1)=N[C@H](Cc1ncco1)c1nnc(C)n1-2 [Compound I-199]	< 500	< 500	–	–
–	–	> 3000	< 500	Cc1sc2c(c1C)C(c1ccc(C3CC(C4CCN(c5cnc(C(=O)N[C@H]6C(C)(C)[C@H](Oc7ccc(C#N)c(Cl)c7)C6(C)C)cn5)CC4)C3)cc1)=NC(C)c1nnc(C)n1-2 (some centres unmarked) [Compound I-471]	–	–	500 to 1500	> 3000
–	–	< 500	< 500	Cc1sc2c(c1C)C(c1ccc(N3CC(C4CCN(c5ncc(C(=O)N[C@H]6C(C)(C)[C@H](Oc7ccc(C#N)c(Cl)c7)C6(C)C)cn5)C4)C3)cc1)=N[C@@H](C)c1nnc(C)n1-2 (some centres unmarked) [Compound I-617]	–	–	< 500	< 500
< 500	< 500	–	–	Cc1sc2c(c1C)C(c1ccc(N3CCC[C@H](C(=O)N4CCCC4c4ncc(C(=O)N[C@H]5C(C)(C)[C@H](Oc6ccc(C#N)c(Cl)c6)C5(C)C)cn4)C3)cc1)=N[C@@H](Cc1ncco1)c1nnc(C)n1-2 (some centres unmarked) [Compound I-314]	> 3000	< 500	–	–
500 to 1500	< 500	–	–	CCNC(=O)C[C@@H]1N=C(c2ccc(CCCN3CCN(c4ncc(C(=O)N[C@H]5C(C)(C)[C@H](Oc6ccc(C#N)c(Cl)c6)C5(C)C)cn4)CC3)cc2)c2c(sc(C)c2C)-n2c(C)nnc21 [Compound I-99]	500 to 1500	< 500	–	–
< 500	< 500	–	–	CCNC(=O)C[C@@H]1N=C(c2ccc(N3CC(N(C)C4CCN(c5ncc(C(=O)N[C@H]6C(C)(C)[C@H](Oc7ccc(C#N)c(Cl)c7)C6(C)C)cn5)CC4)C3)cc2)c2c(sc(C)c2C)-n2c(C)nnc21 [Compound I-122]	500 to 1500	< 500	–	–
